Assay results from ChEMBL document CHEMBL5356972, “Design and synthesis of cantharidin derivative DCZ5418 as a TRIP13 inhibitor with anti-multiple myeloma activity in vitro and in vivo” (Bioorg Med Chem Lett, 2024).
The source made the active and inactive calls. The rule behind the calls is not given here.

Columns and labels:
[1] = Acute toxicity in mouse assessed as kidney injury at 50 mg/kg, ip; type: organism-based; conditions: in vivo
[2] = Acute toxicity in mouse assessed as heart injury at 50 mg/kg, ip; type: organism-based; conditions: in vivo
[3] = Inhibition of cell growth in human H929R cells incubated for 48 hrs by CCK-8 assay
[4] = Inhibition of cell growth in human OCI-My5 cells incubated for 48 hrs by CCK-8 assay; conditions: OCI-My5, 48 h
[5] = Inhibition of cell growth in human H929R cells at 10 uM incubated for 48 hrs by CCK-8 assay relative to control; type: functional
[6] = Acute toxicity in mouse assessed as abnormal behaviors at 50 mg/kg, ip; type: organism-based; conditions: in vivo
[7] = Acute toxicity in mouse assessed as liver injury at 50 mg/kg, ip; type: organism-based; conditions: in vivo
[8] = Inhibition of cell growth in human CD138-positive cells at 20 uM incubated for 48 hrs by CCK-8 assay relative to control; type: functional
[9] = Inhibition of cell growth in human ARP-1 cells incubated for 48 hrs by CCK-8 assay; conditions: ARP-1, 48 h
H929R [10] = assay: Inhibition of cell growth in human H929R cells at 10 uM incubated for 48 hrs by CCK-8 assay; type: functional, cell-based
H929R [11] = assay: Antitumor activity against human H929R cells xenografted in immunodeficient nude mouse assessed as reduction in tumor growth at 15 mg/kg, ip administered once daily for 16 days by vernier caliper method; type: functional, organism-based; conditions: time 16.0 day
[12] = Toxicity in immunodeficient nude mouse xenografted with human H929R cells assessed as reduction in body weight at 25 mg/kg, ip administered once daily for 16 days; type: organism-based; conditions: in vivo, 384 h, time 16 day
[13] = biological target: T1, Pachytene checkpoint protein 2 homolog (Homo sapiens) (UniProt Q15645); assay: Binding affinity to TRIP13 (unknown origin) by SPR analysis
T1 sequence (whole entry): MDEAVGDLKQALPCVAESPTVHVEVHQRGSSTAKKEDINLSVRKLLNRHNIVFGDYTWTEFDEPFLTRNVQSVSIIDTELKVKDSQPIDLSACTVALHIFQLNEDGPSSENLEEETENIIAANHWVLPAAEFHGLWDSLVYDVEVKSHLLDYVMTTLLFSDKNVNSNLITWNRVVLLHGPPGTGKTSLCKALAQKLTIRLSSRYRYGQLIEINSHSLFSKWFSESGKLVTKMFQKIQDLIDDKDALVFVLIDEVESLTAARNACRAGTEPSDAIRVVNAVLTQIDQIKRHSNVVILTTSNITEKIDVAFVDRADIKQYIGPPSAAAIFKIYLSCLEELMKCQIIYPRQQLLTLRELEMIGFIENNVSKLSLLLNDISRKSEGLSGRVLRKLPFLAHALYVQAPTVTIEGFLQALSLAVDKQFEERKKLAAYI

[14] = biological target: T2, Pachytene checkpoint protein 2 homolog (Homo sapiens, UniProt Q15645); assay: Binding affinity to TRIP13 (unknown origin) assessed as dissociation constant by SPR analysis
T2 sequence (Q15645 whole entry): T1 sequence (whole entry)

[15] = Acute toxicity in mouse assessed as reduction in spontaneous activities at 50 mg/kg, ip; type: organism-based; conditions: in vivo
[16] = Toxicity in immunodeficient nude mouse xenografted with human H929R cells assessed as reduction in body weight at 15 mg/kg, ip administered once daily for 16 days; type: organism-based; conditions: in vivo, 384 h, time 16 day

## C[C@@]12C(=O)N(c3ccc(Cc4ccncc4)cc3)C(=O)[C@]1(C)[C@H]1CC[C@@H]2O1 [listing 1 of 2 here]
[1]
  Activity: Non-Toxic
[2]
  Activity: Non-Toxic
[3]
  IC50: 8.47 µM
[4]
  IC50: 4.32 µM
[5]
  inhibition at 10 µM: 49.3%
[6]
  Activity: Non-Toxic
[7]
  Activity: Non-Toxic
[8]
  inhibition at 20 µM: 57%
[9]
  IC50: 3.18 µM

## O=C1C2C3C=C(Br)C(O3)C2C(=O)N1c1ccc(Oc2ccncc2)cc1 (stereo unspecified)
H929R [10]
  inhibition: Active

## CN1CCN(C(=O)C2CCCCC2C(=O)Nc2ccc(Cc3ccncc3)cc2)CC1 (stereo unspecified)
[5]
  inhibition at 10 µM: 17.2%

## CN1CCN(C(=O)C2C3C=C(Br)C(O3)C2C(=O)Nc2ccc(Cc3ccncc3)cc2)CC1 (stereo unspecified)
[5]
  inhibition at 10 µM: 43.1%

## C[C@@]12C(=O)N(c3ccc(Cc4ccncc4)cc3)C(=O)[C@]1(C)[C@H]1CC[C@@H]2O1 [listing 2 of 2 here]
H929R [11]
  Activity: Active

## O=C(NCCCO)C1CCCCC1C(=O)Nc1ccc(Cc2ccncc2)cc1 (stereo unspecified)
[5]
  inhibition at 10 µM: 6.9%

## O=C1C2C3C=CC(C4CC34)C2C(=O)N1c1ccc(Cc2ccncc2)cc1 (stereo unspecified)
[3]
  IC50: 1.35 µM
[4]
  IC50: 5.12 µM
[5]
  inhibition at 10 µM: 28.2%
[12]
  Activity: Non-Toxic
[9]
  IC50: 4.13 µM

## O=C(NCCCO)C1C2C=CC(O2)C1C(=O)Nc1ccc(Cc2ccncc2)cc1 (stereo unspecified)
[5]
  inhibition at 10 µM: 21.2%

## CN1CCN(C(=O)C2CCCCC2C(=O)Nc2ccc(Oc3ccncc3)cc2)CC1 (stereo unspecified)
H929R [10]
  inhibition: Active

## O=C1C2C3CCC(C3)C2C(=O)N1c1ccc(Cc2ccncc2)cc1 (stereo unspecified)
[5]
  inhibition at 10 µM: 41.4%
[13]
  Activity: inactive

## O=C1C2C3C=C(Br)C(O3)C2C(=O)N1c1ccc(Cc2ccncc2)cc1 (stereo unspecified)
[5]
  inhibition at 10 µM: 51.7%
[14]
  Kd: 149 µM

## CN1CCN(C(=O)C2C3C=CC(O3)C2C(=O)Nc2ccc(Cc3ccncc3)cc2)CC1 (stereo unspecified)
[5]
  inhibition at 10 µM: 29.8%

## C[C@@]12C(=O)OC(=O)[C@]1(C)[C@H]1CC[C@@H]2O1 [CANTHARIDIN]
[1]
  Activity: Toxic
[13]
  Activity: inactive
[7]
  Activity: Toxic
[15]
  Activity: Toxic

## C[C@@]12C(=O)N(c3ccc(Cc4ccncc4)cc3)C(=O)[C@]1(C)[C@H]1CC[C@@H]2O1.Cl
[16]
  Activity: Non-Toxic
